Consider three compounds from patent publication US9301524B2, “Methods for reducing leaf senescence using methyl dihydrojasmonate” (New Biology, Inc., priority 2008, dated 2016).

Series [1] concerns corn, rice, wheat, oat, barley, arabidopsis, sunflower, and zucchini. As to conditions: application to intact as well as excised plant leaves; literature; cited from earlier work.
Series [2] relates to miniature PARADE® roses. Description: Foliar MDHJ spray, leaf senescence in potted miniature roses (Example 1). In kind it is in vivo. On the procedure: Potted miniature […]® roses were evaluated for the effect on leaf senescence of foliar spray treatment with an MDHJ formulation. […] Another group of four plants was sprayed with a formulation comprising 1.5 mM MDHJ, 0.5% TRITON® X-100, and 0.125% canola oil. The treated plants were sprayed on six occasions, on days 1, 3, 12, 29, 31, and 58, by spraying foliage to the point of drip. […] Senescence was indicated by chlorosis and necrosis affecting greater than 50% of an individual leaflet.

Series [3] relates to Yellow Dwarf roses. In words: Foliar MDHJ spray, leaf senescence in potted Yellow Dwarf roses (Example 2). It counts as in vivo. As to conditions: one foliar spray. The method, then: Potted Yellow Dwarf roses were grouped into one of four groups, and each of the groups received one treatment. One group was an untreated control (UTC), while the other three groups were treated with aqueous solutions of MDHJ that differed only in the concentration of MDHJ. There were three plants in each group. Before the trial began, naturally senescing leaves were visible on all plants; these were removed at the time that the trial began. The rose leaves received one foliar spray treatment by applying spray until the point of drip. […] Senescence was indicated by chlorosis and necrosis affecting greater than 50% of an individual leaf. After each evaluation, senescing leaves were removed. [table]

For series [4], the system named is spinach seedlings, cultivar 'Merlo Nero'. In words: MDHJ spray, leaf senescence in greenhouse-grown spinach seedlings (Example 3). In kind it is in vivo. On the procedure: Greenhouse-grown spinach seedlings, cultivar ‘Merlo Nero,’ were divided into two groups, with eight plants per group. One group was left untreated, while the other group was treated with 0.5 mM MDHJ in 0.1% ethanol by spraying leaves until the point of drip. Treatments occurred on days 1, 4 and 8 of the experiment. On day 6, senescence was noted on some leaves, defined by chlorosis and/or necrosis. Senescence began at the leaf tip and spread towards the petiole. […] All leaves from each plant were then harvested and combined for each treatment. The total number of senescing leaves were counted and taken as a percentage of the total number of leaves per treatment. Senescence was indicated by chlorosis and necrosis affecting greater than 50% of an individual leaf.

Series [5] deals with corn ('Kandy Korn', extra sweet) seedlings. In words: Foliar MDHJ spray, leaf senescence in corn seedlings (Example 4). In kind it is in vivo. As to conditions: 6 days after treatment. The method, then:
Seeds of corn (‘Kandy Korn’, extra sweet) were planted in 2-inch pots. Seedlings were germinated under 16-hour day/8-hour night greenhouse conditions. Plants were placed outdoors and received 5-6 hours of natural, direct light. Eighteen days after planting, seedlings received one of two treatments. • Treatment 1 (n=11): Foliar spray with water—control • Treatment 2 (n=12): Foliar spray of 1 mM MDHJ in water. Plant leaves from both treatments were sprayed until the point of drip and allowed to air dry before being randomly combined into the same growing tray (to provide plants from both treatments with identical growing conditions). […] Plants were observed and visible leaf senescence recorded 6 days after the single treatment. Plants were scored according to presence or absence of senescence on any leaf of the plant. […] Of the plants with senescing leaves, only one leaf per plant had senescence (10%) in the Treatment 2 group.

Series [6] is described as follows: Solubility in water. In kind it is physicochemical.
The test system of series [7] is plants. As to conditions: U.S. Patent Application Publication No. 2009/0082453; cited from earlier work.

In the case of `CC/C=C\CC1C(=O)CCC1CC(=O)O` (stereo not shown) [jasmonic acid, 2-(3-oxo-2-(pent-2-enyl)cyclopentyl)acetic acid], the “effect on leaf senescence (in words)” value in series [1] was “promotes or accelerates leaf senescence”.

Consider `CC/C=C\CC1C(=O)CCC1CC(=O)OC` (stereo not shown) [methyl jasmonate], for which the “effect on leaf senescence (in words)” value in series [1] was “promotes or accelerates leaf senescence”.

As for `CCCCCC1C(=O)CCC1CC(=O)OC` (stereo not shown) [MDHJ, methyl dihydrojasmonate], the “senescing leaves (in words)” value in series [2] (1.5 mM MDHJ foliar spray, sixty-five days after treatment, untreated up to 9.4% of leaflets) is “no senescing leaves”. Further, the “% Leaflets exhibiting senescence” value in series [2] (individual plant, foliar spray 1.5 mM MDHJ, 0.5% TRITON X-100, 0.125% canola oil on days 1, 3, 12, 29, 31, 58, analyzed 65 days after first treatment, senescence = chlorosis and necrosis >50% of leaflet) was 0.0%. The “rate of naturally senescing leaves compared to the untreated control group (in words)” value in series [3] (MDHJ treatment in general (1.5, 3.0, 6.0 mM)) is recorded as “reduced the rate of naturally senescing leaves”. In addition, the “Mean No. Leaves (exhibiting senescence)” value in series [3] (Treatment Group 2: 1.5 mM MDHJ + 0.125% TRITON X-100 + 0.5% Canola Oil, Day 3) worked out at 27; in series [3] (Treatment Group 2: 1.5 mM MDHJ + 0.125% TRITON X-100 + 0.5% Canola Oil, Day 7), 1; in series [3] (Treatment Group 2: 1.5 mM MDHJ + 0.125% TRITON X-100 + 0.5% Canola Oil, Day 10), 5; in series [3] (Treatment Group 2: 1.5 mM MDHJ + 0.125% TRITON X-100 + 0.5% Canola Oil, Day 14), 13; in series [3] (Treatment Group 2: 1.5 mM MDHJ + 0.125% TRITON X-100 + 0.5% Canola Oil, Day 31) it was 27; in series [3] (Treatment Group 3: 3.0 mM MDHJ + 0.125% TRITON X-100 + 0.5% Canola Oil, Day 3), 25. In addition, the “Mean No. Leaves (exhibiting senescence)” value was found to be 1 in series [3] (Treatment Group 3: 3.0 mM MDHJ + 0.125% TRITON X-100 + 0.5% Canola Oil, Day 7); 4 in series [3] (Treatment Group 3: 3.0 mM MDHJ + 0.125% TRITON X-100 + 0.5% Canola Oil, Day 10); 12 in series [3] (Treatment Group 3: 3.0 mM MDHJ + 0.125% TRITON X-100 + 0.5% Canola Oil, Day 14); 25 in series [3] (Treatment Group 3: 3.0 mM MDHJ + 0.125% TRITON X-100 + 0.5% Canola Oil, Day 31); 23 in series [3] (Treatment Group 4: 6.0 mM MDHJ + 0.125% TRITON X-100 + 0.5% Canola Oil, Day 3); 2 in series [3] (Treatment Group 4: 6.0 mM MDHJ + 0.125% TRITON X-100 + 0.5% Canola Oil, Day 7). Besides, the “Mean No. Leaves (exhibiting senescence)” value was 5 in series [3] (Treatment Group 4: 6.0 mM MDHJ + 0.125% TRITON X-100 + 0.5% Canola Oil, Day 10); 12 in series [3] (Treatment Group 4: 6.0 mM MDHJ + 0.125% TRITON X-100 + 0.5% Canola Oil, Day 14); 23 in series [3] (Treatment Group 4: 6.0 mM MDHJ + 0.125% TRITON X-100 + 0.5% Canola Oil, Day 31). Moreover, in series [4] (0.5 mM MDHJ in 0.1% ethanol sprayed on days 1, 4 and 8, counted day 8, untreated 34.6%), the “% of Leaves Exhibiting Senescence” value is given as 8.6%. In addition, the “% of Plants Exhibiting Senescence” value in series [4] (0.5 mM MDHJ in 0.1% ethanol, day 8, eight plants, untreated 87.5%) came to 37.5%. The “Number of Plants Exhibiting Chlorosis or Necrosis” value in series [4] (0.5 mM MDHJ in 0.1% ethanol, day 8, of 8 plants, untreated 7) was determined as 3. In series [4] (0.5 mM MDHJ in 0.1% ethanol, day 8, of 93 leaves in total, untreated 36 of 104), the “Number of Senescent Leaves” value is on record as 8. Further, the “of the plants with senescing leaves, only one leaf per plant had senescence (percentage in brackets)” value in series [5] (Treatment 2: 1 mM MDHJ in water) is 10%. Besides, in series [5] (Treatment 2: 1 mM MDHJ in water, water control 43%), the “severity of senescence: mean % yellow per senescing leaf (leaf area)” value is 15%. The “% of plants with two senescent leaves” value in series [5] (Treatment 2: single foliar spray of 1 mM MDHJ in water (n = 12), water control 27%) was 0%. Further, the “% of plants with one senescent leaf” value in series [5] (Treatment 2: single foliar spray of 1 mM MDHJ in water (n = 12), water control 36%) amounted to 25%. In addition, the “% of plants with senescing leaves” value in series [5] (Treatment 2: single foliar spray of 1 mM MDHJ in water (n = 12), water control 64%) was 27%. Besides, the “solubility in water (in words)” value in series [6] was “relatively low solubility in water”. Besides, in series [7], the “effect on biotic attack and disease in plants (in words)” value was “effective in reducing biotic attack and disease in plants”.
